{"source": "ChEMBL document CHEMBL1128149", "about": "“Molecular design of novel PGI2 agonists without PG skeleton. IV” (Bioorg Med Chem Lett, 1995)", "key": {"Homo sapiens": {"organism": "Homo sapiens", "experiment": "Compound was tested for its inhibitory activity against 4 uM ADP-induced platelet aggregation of human platelet rich plasma", "format": "functional"}, "Prostacyclin receptor": {"target": "Prostacyclin receptor (Homo sapiens, UniProt P43119)", "sequence (P43119 whole entry)": "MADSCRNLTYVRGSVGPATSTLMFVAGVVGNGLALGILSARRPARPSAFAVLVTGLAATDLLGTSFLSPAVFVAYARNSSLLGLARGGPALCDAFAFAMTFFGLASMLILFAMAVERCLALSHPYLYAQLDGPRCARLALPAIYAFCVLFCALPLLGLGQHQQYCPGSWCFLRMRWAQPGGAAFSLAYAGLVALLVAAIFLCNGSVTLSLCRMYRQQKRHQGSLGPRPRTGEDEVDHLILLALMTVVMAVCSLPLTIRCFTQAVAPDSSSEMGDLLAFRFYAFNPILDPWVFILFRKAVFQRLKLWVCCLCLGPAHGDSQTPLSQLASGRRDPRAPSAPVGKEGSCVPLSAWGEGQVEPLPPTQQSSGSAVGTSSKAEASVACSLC", "experiment": "Compound was tested for its binding affinity against Prostaglandin I2 receptor using conventional ligand assay by the displacement of [3H]-iloprost from human platelets"}}}
{"smiles": "O=C(O)COc1cccc2c1CCC(CC1C=NC(C(c3ccccc3)c3ccccc3)=N1)C2", "note": "(stereo not drawn)", "values": [{"measurement": "IC50", "setting": "Homo sapiens; Homo sapiens, Plasma", "value": 12000, "unit": "nM"}]}
{"smiles": "O=C(O)COc1cccc2c1CCC=C2CCn1cc(C(c2ccccc2)c2ccccc2)cn1", "values": [{"measurement": "IC50", "setting": "Homo sapiens; Homo sapiens, Plasma", "value": 8600, "unit": "nM"}, {"measurement": "IC50", "setting": "Prostacyclin receptor", "value": 2000, "unit": "nM"}]}
{"smiles": "O=C(O)COc1cccc2c1CCCC2CCn1cc(C(c2ccccc2)c2ccccc2)cn1", "note": "(stereo not drawn)", "values": [{"measurement": "IC50", "setting": "Homo sapiens; Homo sapiens, Plasma", "value": 93, "unit": "nM"}, {"measurement": "IC50", "setting": "Prostacyclin receptor", "value": 18, "unit": "nM"}]}
{"smiles": "O=C(O)COc1cccc2c1CCC(Cn1cc(C(c3ccccc3)c3ccccc3)cn1)C2", "note": "(stereo not drawn)", "values": [{"measurement": "IC50", "setting": "Homo sapiens", "value": 530, "unit": "nM"}, {"measurement": "IC50", "setting": "Prostacyclin receptor", "value": 40, "unit": "nM"}]}
{"smiles": "O=C(O)COc1cccc2c1CCC(Cc1nc(C(c3ccccc3)c3ccccc3)co1)C2", "note": "(stereo not drawn)", "values": [{"measurement": "IC50", "setting": "Homo sapiens", "value": 5100, "unit": "nM"}]}
{"smiles": "O=C(O)COc1cccc2c1CCC(Cc1coc(C(c3ccccc3)c3ccccc3)n1)C2", "note": "(stereo not drawn)", "values": [{"measurement": "IC50", "setting": "Homo sapiens", "value": 1000, "unit": "nM"}]}
{"smiles": "O=C(O)COc1cccc2c1CCC(Cn1cnc(C(c3ccccc3)c3ccccc3)c1)C2", "note": "(stereo not drawn)", "values": [{"measurement": "IC50", "setting": "Homo sapiens; Homo sapiens, Plasma", "value": 670, "unit": "nM"}]}
{"smiles": "O=C(O)COc1cccc2c1CCC(CC1=NC(C(c3ccccc3)c3ccccc3)=NC1)C2", "note": "(stereo not drawn)", "values": [{"measurement": "IC50", "setting": "Homo sapiens", "value": 1000, "unit": "nM"}]}
{"smiles": "O=C(O)COc1cccc2c1CCC(Cn1cc(C(c3ccccc3)c3ccccc3)cn1)=C2", "values": [{"measurement": "IC50", "setting": "Homo sapiens; Homo sapiens, Plasma", "value": 26, "unit": "nM"}, {"measurement": "IC50", "setting": "Prostacyclin receptor", "value": 8, "unit": "nM"}]}
